Source: patent US7384949B2, “Thieno(3,2-d)pyrimidines and furano(3,2-d)pyrimidines and their use as purinergic receptor antagonists” (Vernalis Research Limited, priority 2001, dated 2008)

First: CN(C)c1nc(-c2nccn2COCC[Si](C)(C)C)c2sccc2n1
Second: CN(C)c1nc(-c2cnn(COCC[Si](C)(C)C)c2)c2sccc2n1
The melting point of the first is higher: 131 to 132 °C for the first, 60 to 61 °C for the second.

First: C[Si](C)(C)CCOCn1cc(-c2nc(Cl)nc3ccsc23)cn1
Second: Cn1nccc1-c1nc(Cl)nc2ccsc12 [Example 182, 2-chloro-4-(1-methyl-1H-pyrazol-5-yl)thieno[3,2-d]pyrimidine]
The melting point of the first is lower: 108 to 109 °C for the first, 141 to 142 °C for the second.

First: Clc1nc(-c2ccco2)c2sccc2n1 [Example 3, 2-chloro-4-(2-furyl)thieno[3,2-d]pyrimidine]
Second: CCSc1nc(-c2ccco2)c2sccc2n1 [Example 37, 2-ethylthio-4-(2-furyl)thieno[3,2-d]pyrimidine]
The melting point of the first is lower: 146.9 to 147.6 °C for the first, 207 to 208 °C for the second.

Compared with `OC[C@H]1CCCN1c1nc(-c2cccs2)c2sccc2n1` [Example 4, (2R)-2-(2-hydroxymethylpyrrolidin-1-yl)-4-(2-thienyl)thieno[3,2-d]pyrimidine], `OC[C@H]1CCCN1c1nc(-c2ccco2)c2sccc2n1` [Example 38, (2R)-4-(2-furyl)-2-(2-hydroxymethylpyrrolidin-1-yl)thieno[3,2-d]pyrimidine] is lower in melting point: 128.5 to 128.9 °C for the first, 109 to 110 °C for the second.

First: FC(F)(F)c1nc(-c2ccco2)c2sccc2n1 [Example 11, 4-(2-furyl)-2-trifluoromethylthieno[3,2-d]pyrimidine]
Second: CC(=O)Nc1nc(-c2ccco2)c2sccc2n1 [Example 101, N-(4-(2-furyl)thieno[3,2-d]pyrimidin-2-yl)acetamide]
The melting point of the first is lower: 147.6 to 148.8 °C for the first, 193.9 to 195 °C for the second.

First: Cc1csc2c(-c3ccco3)nc(Cl)nc12 [Example 12, 2-chloro-4-(2-furyl)-7-methylthieno[3,2-d]pyrimidine]
Second: CS(=O)(=O)Nc1csc2c(-c3ccco3)nc(Cl)nc12 [Example 59, N-(2-chloro-4-(2-furyl)thieno[3,2-d]pyrimidine-7-yl)methanesulphonamide]
The melting point of the first is lower: 164.4 to 164.9 °C for the first, 211.9 °C for the second.

First: Cc1csc2c(-c3ccco3)nc(NCCO)nc12 [Example 16, 4-(2-furyl)-N-(2-hydroxyethyl)-7-methylthieno[3,2-d]pyrimidine-2-amine]
Second: CN(C)c1nc(-c2ccco2)c2scc(Br)c2n1 [Example 22, 7-bromo-N,N-dimethyl-4-(2-furyl)thieno[3,2-d]pyrimidine-2-amine]
The melting point of the first is higher: 149.9 to 150.6 °C for the first, 118.7 to 119.5 °C for the second.

Compared with `Clc1nc(-c2cc3ccccc3s2)c2sccc2n1` [Example 17, 4-(2-benzothiophenyl)-2-chlorothieno[3,2-d]pyrimidine], `OCCNc1nc(-c2cc3ccccc3s2)c2sccc2n1` [Example 20, 4-(2-benzothiophenyl)-N-(2-hydroxyethyl)thieno[3,2-d]pyrimidine-2-amine] is lower in melting point: 231 to 231.6 °C for the first, 173.4 to 174.4 °C for the second.

First: Clc1nc(-c2ccccn2)c2sccc2n1 [Example 24, 2-chloro-4-(2-pyridyl)thieno[3,2-d]pyrimidine]
Second: Clc1nc(-c2cnccn2)c2sccc2n1 [Example 30, 2-chloro-4-(2-pyrazinyl)thieno[3,2-d]pyrimidine]
The melting point of the first is higher: 209.2 to 209.5 °C for the first, 183.2 to 183.8 °C for the second.

First: OCCNc1nc(-c2cnccn2)c2sccc2n1 [Example 34, N-(2-hydroxyethyl)-4-(2-pyrazinyl)thieno[3,2-d]pyrimidine-2-amine]
Second: C=CCNc1nc(-c2nccs2)c2sccc2n1 [Example 112, N-allyl-4-(2-thiazolyl)thieno[3,2-d]pyrimidine-2-amine]
The melting point of the first is higher: 191.5 to 192.4 °C for the first, 128 to 129 °C for the second.

First: CN(C)c1nc(-c2ccco2)c2scc([N+](=O)[O-])c2n1 [Example 44, N,N-dimethyl-4-(2-furyl)-7-nitrothieno[3,2-d]pyrimidine-2-amine]
Second: CN(C)c1nc(-c2ccco2)c2scc(N)c2n1 [Example 51, 7-amino-N,N-dimethyl-4-(2-furyl)thieno[3,2-d]pyrimidine-2-amine]
The melting point of the first is higher: 182.8 to 183.8 °C for the first, 145.8 to 146.5 °C for the second.

First: CN(C)c1nc(-c2ccco2)c2scc(NC(=O)Nc3ccccc3)c2n1 [Example 55, N-(2-dimethylamino-4-(2-furyl)thieno[3,2-d]pyrimidine-7-yl)-N′-phenylurea]
Second: CN(C)c1nc(-c2ccco2)c2scc(NC(=O)c3ccccc3)c2n1 [Example 57, N-(2-dimethylamino-4-(2-furyl)thieno[3,2-d]pyrimidine-7-yl)benzamide]
The melting point of the first is higher: 244.4 to 244.9 °C for the first, 192.2 to 192.8 °C for the second.

First: CC(=O)Nc1csc2c(-c3ccco3)nc(N(C)C)nc12 [Example 56, N-(2-dimethylamino-4-(2-furyl)thieno[3,2-d]pyrimidine-7-yl)acetamide]
Second: CC(=O)CC(=O)N(C)c1nc(-c2ccco2)c2sccc2n1 [Example 60, N-(4-(2-furyl)thieno[3,2-d]pyrimidine-2-yl)-N-methyl-3-oxobutanamide]
The melting point of the first is higher: 210.9 to 211.3 °C for the first, 108.3 to 108.6 °C for the second.

First: OC[C@H]1CCCN1c1nc(-c2ccco2)c2scc(Br)c2n1 [Example 72, (2R)-7-bromo-4-(2-furyl)-2-(2-hydroxymethylpyrrolidin-1-yl)thieno[3,2-d]pyrimidine]
Second: CCc1nc(-c2ccco2)c2sc(C)cc2n1 [Example 188, 2-ethyl-4-(2-furyl)-6-methylthieno[3,2-d]pyrimidine]
The melting point of the first is lower: 75.4 to 76.3 °C for the first, 104.7 to 104.8 °C for the second.

First: COc1ccc(CNc2nc(-c3ccco3)c3sccc3n2)cc1OC [Example 78, N-(3,4-dimethoxybenzyl)-4-(2-furyl)thieno[3,2-d]pyrimidine-2-amine]
Second: COc1ccc(CNc2nc(-c3nccs3)c3sccc3n2)cc1OC [Example 108, N-(3,4-dimethoxybenzyl)-4-(2-thiazolyl)thieno[3,2-d]pyrimidine-2-amine]
The melting point of the first is lower: 155 to 156 °C for the first, 178.7 to 179.5 °C for the second.

First: Cc1cnc(-c2nc(Cl)nc3ccsc23)s1 [Example 102, 2-chloro-4-(5-methyl-2-thiazolyl)thieno[3,2-d]pyrimidine]
Second: Cc1nc(-c2nc(Cl)nc3ccsc23)sc1C [Example 103, 2-chloro-4-(4,5-dimethyl-2-thiazolyl)thieno[3,2-d]pyrimidine]
The melting point of the first is higher: 243 to 244 °C for the first, 240 to 241 °C for the second.

First: CCc1nc(-c2ncc(-c3ccccc3)o2)c2sccc2n1 [Example 106, 2-ethyl-4-(5-phenyl-2-oxazolyl)thieno[3,2-d]pyrimidine]
Second: CCc1nc(-c2nc3ccccc3s2)c2sccc2n1 [Example 122, 4-(2-benzothiazolyl)-2-ethylthieno[3,2-d]pyrimidine]
The melting point of the first is higher: 170 to 170.5 °C for the first, 131 °C for the second.

First: Cc1ccc(-c2nc(Cl)nc3ccsc23)nc1 [Example 109, 2-chloro-4-(5-methyl-2-pyridyl)thieno[3,2-d]pyrimidine]
Second: Clc1nc(-c2ccsc2)c2sccc2n1 [Example 156, 2-chloro-4-(3-thienyl)thieno[3,2-d]pyrimidine]
The melting point of the first is higher: 221 to 222 °C for the first, 117.7 to 118.2 °C for the second.

First: CC(=O)Nc1nc(-c2nccs2)c2sccc2n1 [Example 116, N-(4-(2-thiazolyl)thieno[3,2-d]pyrimidin-2-yl)acetamide]
Second: c1csc(-c2nc(-c3nccs3)c3sccc3n2)c1 [Example 153, 4-(2-thiazolyl)-2-(2-thienyl)thieno[3,2-d]pyrimidine]
The melting point of the first is higher: 242.6 to 243.9 °C for the first, 221.9 °C for the second.

Compared with `c1coc(-c2nc(Cc3cccs3)nc3ccsc23)c1` [Example 117, 4-(2-furyl)-2-(2-thienylmethyl)thieno[3,2-d]pyrimidine], `Clc1nc(-c2ccccc2)c2sccc2n1` [Example 158, 2-chloro-4-phenylthieno[3,2-d]pyrimidine] is lower in melting point: 149 °C for the first, 146.5 to 147.2 °C for the second.

Compared with `CCc1nc(-c2nc(CC)nc3ccsc23)c2sccc2n1` [Example 119, 2-ethyl-4-(2-ethylthieno[3,2-d]pyrimidin-4-yl)thieno[3,2-d]pyrimidine], `CCc1nc(-c2nncn2C)c2sccc2n1` [Example 187, 2-ethyl-4-(4-methyl-4H-1,2,4-triazol-3-yl)thieno[3,2-d]pyrimidine] is lower in melting point: 179 °C for the first, 110.2 to 111.4 °C for the second.

First: CN(C)c1nc(-c2ccsc2)c2sccc2n1 [Example 157, N,N-dimethyl-4-(3-thienyl)thieno[3,2-d]pyrimidine-2-amine]
Second: CN(C)c1nc(-c2ccccc2)c2sccc2n1 [Example 159, N,N-dimethyl-4-phenylthieno[3,2-d]pyrimidine-2-amine]
The melting point of the first is higher: 119 to 119.4 °C for the first, 112.9 to 114.1 °C for the second.

First: Clc1nc(-c2ccoc2)c2sccc2n1 [Example 160, 2-chloro-4-(3-furyl)thieno[3,2-d]pyrimidine]
Second: CN(C)c1nc(-c2ccnn2C)c2sccc2n1 [Example 184, N,N-dimethyl-4-(1-methyl-1H-pyrazol-5-yl)thieno[3,2-d]pyrimidine-2-amine]
The melting point of the first is higher: 129.3 to 129.9 °C for the first, 126.5 to 127 °C for the second.

First: O=[N+]([O-])c1cc2nc(Cl)nc(-c3ccco3)c2s1 [Example 162, 2-chloro-4-(2-furyl)-6-nitrothieno[3,2-d]pyrimidine]
Second: CN(C)c1nc(-c2cnn(C)c2)c2sccc2n1 [Example 186, N,N-dimethyl-4-(1-methyl-1H-pyrazol-4-yl)thieno[3,2-d]pyrimidine-2-amine]
The melting point of the first is higher: 204 to 204.9 °C for the first, 175.4 to 175.9 °C for the second.

First: CCOC(=O)Cn1ccnc1-c1nc(N(C)C)nc2ccsc12 [Example 177, N,N-dimethyl-4-((1-ethoxycarbonylmethyl)-1H-imidazol-2-yl)thieno[3,2-d]pyrimidine-2-amine]
Second: CN(C)c1nc(-c2nccn2CCO)c2sccc2n1 [Example 178, N,N-dimethyl-4-(1-(2-hydroxyethyl)-1H-imidazol-2-yl)thieno[3,2-d]pyrimidine-2-amine]
The melting point of the first is higher: 209 to 210 °C for the first, 162.2 to 164.9 °C for the second.

In the case of `CCc1nc(-c2nccn2COC)c2sccc2n1` [Example 179, 2-ethyl-4-(1-methoxymethyl-1H-imidazol-2-yl)thieno[3,2-d]pyrimidine], the melting point is reported as 69 to 70 °C.

With `CCc1nc(-c2nncn2COCC[Si](C)(C)C)c2sccc2n1` the melting point was < 100 °C.
In the case of `NC(=O)c1nc(-c2ccco2)c2sccc2n1` [Example 155, 4-(2-furyl)thieno[3,2-d]pyrimidine-2-carboxamide], the melting point is reported as 300 °C (dec.).
